What was measured:
soybean = assay: Test C preemergence; format: in vivo, Glycine max; conditions: for Plant response rating (scale of 0 to 100), Soybean: Preemergence, 250 g ai/ha; for Soybean plant response rating / Plant response rating, Soybean: preemergence; for Plant response rating, Soybean: 62 g ai/ha, scale 0 to 100, 0 = no effect, 100 = complete control
Procedure, shortened: (§1)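 In this greenhouse assay, seeded soil (loam plus sand) or emerged seedlings in peat-vermiculite medium were treated with formulated compound. Roughly two weeks later (13–15 days), each species was scored visually relative to controls, from 0 for no effect to 100 for complete control.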

barley, spring = assay: Test D postemergence; format: in vivo, Hordeum vulgare; conditions: scale 0 to 100
Source text: (§2) Seeds of plant species selected from bluegrass (annual bluegrass, Poa annua), blackgrass (Alopecurus myosuroides), canarygrass (littleseed canarygrass, Phalaris minor), chickweed (common chickweed, Stellaria media), galium (catchweed bedstraw, Galium aparine), bromegrass, downy (downy bromegrass, Bromus tectorum), field poppy (Papaver rhoeas), field violet (Viola arvensis), foxtail, green (green foxtail, Setaria viridis), deadnettle (henbit deadnettle, Lamium amplexicaule), ryegrass, Italian (Italian ryegrass, Lolium multiflorum), kochia (Kochia scoparia), lambsquarters (Chenopodium album), oilseed rape (Brassica napus), pigweed (redroot pigweed, Amaranthus retroflexus), chamomile (scentless chamomile, Matricaria inodora), speedwell (bird's-eye speedwell, Veronica persica), barley, spring (spring barley, Hordeum vulgare), wheat, spring (spring wheat, Triticum aestivum), buckwheat, wild (wild buckwheat, Polygonum convolvulus), mustard, wild (wild mustard, Sinapis arvensis), oat, wild (wild oat, Avena fatua), radish, wild (wild radish, Raphanus raphanistrum), windgrass (Apera spica-venti), Russian thistle (Salsola kali), barley, winter (winter barley, Hordeum vulgare), and wheat, winter (winter wheat, Triticum aestivum) were planted into a silt loam soil and treated preemergence with test chemicals formulated in a non-phytotoxic solvent mixture which included a surfactant.
(§3) At the same time, these species were planted in pots containing Redi-Earth® planting medium (Scotts Company, 14111 Scottslawn Road, Marysville, Ohio 43041) comprising spaghnum peat moss, vermiculite, wetting agent and starter nutrients and treated with postemergence applications of the test chemicals formulated in the same manner. Plants ranged in height from 2 to 18 cm (1- to 4-leaf stage). Treated plants and controls were maintained in a controlled growth environment for 14 to 21 days after which time all species were compared to controls and visually evaluated. Plant response ratings, summarized in Table D, are based on a scale of 0 to 100 where 0 is no effect and 100 is complete control. A dash (-) response means no test result.

barley, winter = assay: Test D postemergence; format: in vivo, Hordeum vulgare; conditions: scale 0 to 100
Source text: as §2, §3

pigweed [1] = assay: Test D postemergence; format: in vivo, Amaranthus retroflexus; conditions: scale 0 to 100; for Plant response rating, Pigweed: 16 g ai/ha
Procedure, shortened: (§4)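 Preemergence: seeds sown in silt loam and sprayed with compounds in a non-phytotoxic solvent with surfactant; postemergence: plants at 2 to 18 cm (1- to 4-leaf stage) in peat-based medium treated likewise. After 14 to 21 days in controlled growth conditions, injury rated visually versus controls on 0 (no effect) to 100 (complete control) scale.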

ducksalad = assay: Test C flooded paddy test; format: in vivo, Heteranthera limosa; conditions: Flood
Procedure, shortened: (§5)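 Under a constant 3 cm flood, test compounds went directly into the paddy water. Following 13 to 15 days of greenhouse growth, treated species and controls were compared by eye.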

blackgrass = assay: Test D postemergence; format: in vivo, Alopecurus myosuroides; conditions: scale 0 to 100; for Plant response rating, Blackgrass: 16 g ai/ha
Procedure, shortened: as §4

pigweed [2] = assay: Test C preemergence; format: in vivo, Amaranthus retroflexus; conditions: for Plant response rating (scale of 0 to 100), Pigweed: Preemergence, 250 g ai/ha; for Pigweed plant response rating / Plant response rating, Pigweed: preemergence; for Plant response rating, Pigweed: 62 g ai/ha, scale 0 to 100, 0 = no effect, 100 = complete control
Procedure, shortened: as §1

ragweed = assay: Test C postemergence; format: in vivo, Ambrosia elation; conditions: postemergence
Procedure, shortened: as §1

rice = assay: Test C flooded paddy test; format: in vivo, Oryza sativa; conditions: Flood
Procedure, shortened: as §5

sedge, umbrella = assay: Test C flooded paddy test; format: in vivo, Cyperus difformis; conditions: Flood
Procedure, shortened: as §5

ryegrass, Italian = assay: Test C postemergence; format: in vivo, Lolium multiflorum; conditions: postemergence
Procedure, shortened: as §1

barnyardgrass = assay: Test C flooded paddy test; format: in vivo, Echinochloa crus-galli; conditions: Flood
Procedure, shortened: as §5

[3] = 31 g ai/ha, scale 0 to 100 (0 no effect, 100 complete control), 13 to 15 days
[4] = 125 g ai/ha, scale 0 to 100, 0 is no effect, 100 is complete control
[5] = 31 g ai/ha, scale 0 to 100 (0 no effect, 100 complete control)
[6] = 62 g ai/ha, scale 0 to 100 (0 no effect, 100 complete control)
[7] = 250 g ai/ha, scale 0 to 100 (0 no effect, 100 complete control)
[8] = 62 g ai/ha, scale 0 to 100, 0 no effect, 100 complete control
[9] = 125 g ai/ha, scale 0 to 100, 0 no effect, 100 complete control

## CCc1cc(C(=O)NOC(C)C)nn1Cc1cccc(OC(F)(F)F)c1 [Compound 70]
soybean
  Plant response rating (scale of 0 to 100), Soybean: 75
soybean; [3]
  Soybean plant response rating: 5
soybean; 13 to 15 days
  Plant response rating, Soybean: 15
soybean; [4]
  Soybean plant response rating: 70
barley, spring; Postemergence, 16 g ai/ha
  Barley, Spring plant response rating: 0
barley, spring; Postemergence, 31 g ai/ha
  Barley, Spring plant response rating: 0
barley, spring; Postemergence, 125 g ai/ha
  Barley, Spring plant response rating: 5
barley, spring; Postemergence, 250 g ai/ha
  Barley, Spring plant response rating: 5
barley, spring; postemergence, 62 g ai/ha
  Barley, Spring plant response rating: 0
barley, winter; Postemergence, 16 g ai/ha
  Barley, Winter plant response rating: 0
barley, winter; Postemergence, 31 g ai/ha
  Barley, Winter plant response rating: 0
barley, winter; Postemergence, 125 g ai/ha
  Barley, Winter plant response rating: 5
barley, winter; Postemergence, 250 g ai/ha
  Barley, Winter plant response rating: 5
barley, winter; postemergence, 62 g ai/ha
  Barley, Winter plant response rating: 5
Pigweed [1]; Postemergence
  Plant response rating, Pigweed: 40
Pigweed [1]; Postemergence, 31 g ai/ha
  Pigweed plant response rating: 60
Pigweed [1]; Postemergence, 125 g ai/ha
  Pigweed plant response rating: 75
Pigweed [1]; Postemergence, 250 g ai/ha
  Pigweed plant response rating: 90
Pigweed [1]; postemergence, 62 g ai/ha
  Pigweed plant response rating: 60
ducksalad; [5]
  Plant response rating, Ducksalad: 30
ducksalad; [6]
  Plant response rating, Ducksalad: 40
ducksalad; 125 g ai/ha, scale 0 to 100
  Plant response rating, Ducksalad: 85
ducksalad; 250 g ai/ha, scale 0 to 100
  Plant response rating, Ducksalad: 85
blackgrass; Postemergence
  Plant response rating, Blackgrass: 0
blackgrass; Postemergence, 31 g ai/ha
  Blackgrass plant response rating: 0
blackgrass; Postemergence, 125 g ai/ha
  Blackgrass plant response rating: 0
blackgrass; Postemergence, 250 g ai/ha
  Blackgrass plant response rating: 0
blackgrass; postemergence, 62 g ai/ha
  Blackgrass plant response rating: 0
Pigweed [2]
  Plant response rating (scale of 0 to 100), Pigweed: 100
Pigweed [2]; [3]
  Pigweed plant response rating: 100
Pigweed [2]; 13 to 15 days
  Plant response rating, Pigweed: 100
Pigweed [2]; [4]
  Pigweed plant response rating: 100
ragweed; [7]
  Plant response rating, Ragweed: 65
ragweed; [8]
  Plant response rating, Ragweed: 60
ragweed; [9]
  Plant response rating, Ragweed: 65
rice; [5]
  Plant response rating, Rice: 0
rice; [6]
  Plant response rating, Rice: 0
rice; 125 g ai/ha, scale 0 to 100
  Plant response rating, Rice: 25
rice; 250 g ai/ha, scale 0 to 100
  Plant response rating, Rice: 50
sedge, umbrella; [5]
  Plant response rating, Sedge, Umbrella: 75
sedge, umbrella; [6]
  Plant response rating, Sedge, Umbrella: 75
sedge, umbrella; 125 g ai/ha, scale 0 to 100
  Plant response rating, Sedge, Umbrella: 85
sedge, umbrella; 250 g ai/ha, scale 0 to 100
  Plant response rating, Sedge, Umbrella: 90
ryegrass, Italian; [7]
  Plant response rating, Ryegrass, Italian: 50
ryegrass, Italian; [8]
  Plant response rating, Ryegrass, Italian: 25
ryegrass, Italian; [9]
  Plant response rating, Ryegrass, Italian: 35
barnyardgrass; [5]
  Plant response rating, Barnyardgrass: 0
barnyardgrass; [6]
  Plant response rating, Barnyardgrass: 0
barnyardgrass; 125 g ai/ha, scale 0 to 100
  Plant response rating, Barnyardgrass: 45
barnyardgrass; 250 g ai/ha, scale 0 to 100
  Plant response rating, Barnyardgrass: 65

## Cc1cc(C(=O)NCC(F)(F)F)nn1Cc1ccnc(C(F)(F)F)c1 [Compound 74]
soybean
  Plant response rating (scale of 0 to 100), Soybean: 98
soybean; [3]
  Soybean plant response rating: 25
soybean; 13 to 15 days
  Plant response rating, Soybean: 55
soybean; [4]
  Soybean plant response rating: 85
barley, spring; Postemergence, 16 g ai/ha
  Barley, Spring plant response rating: 0
barley, spring; Postemergence, 31 g ai/ha
  Barley, Spring plant response rating: 0
barley, spring; Postemergence, 125 g ai/ha
  Barley, Spring plant response rating: 0
barley, spring; postemergence, 62 g ai/ha
  Barley, Spring plant response rating: 0
barley, winter; Postemergence, 16 g ai/ha
  Barley, Winter plant response rating: 0
barley, winter; Postemergence, 31 g ai/ha
  Barley, Winter plant response rating: 0
barley, winter; Postemergence, 125 g ai/ha
  Barley, Winter plant response rating: 5
barley, winter; postemergence, 62 g ai/ha
  Barley, Winter plant response rating: 0
Pigweed [1]; Postemergence
  Plant response rating, Pigweed: 65
Pigweed [1]; Postemergence, 31 g ai/ha
  Pigweed plant response rating: 50
Pigweed [1]; Postemergence, 125 g ai/ha
  Pigweed plant response rating: 65
Pigweed [1]; postemergence, 62 g ai/ha
  Pigweed plant response rating: 65
ducksalad; [5]
  Plant response rating, Ducksalad: 0
ducksalad; [6]
  Plant response rating, Ducksalad: 0
ducksalad; 125 g ai/ha, scale 0 to 100
  Plant response rating, Ducksalad: 0
ducksalad; 250 g ai/ha, scale 0 to 100
  Plant response rating, Ducksalad: 90
blackgrass; Postemergence
  Plant response rating, Blackgrass: 0
blackgrass; Postemergence, 31 g ai/ha
  Blackgrass plant response rating: 0
blackgrass; Postemergence, 125 g ai/ha
  Blackgrass plant response rating: 0
blackgrass; postemergence, 62 g ai/ha
  Blackgrass plant response rating: 5
Pigweed [2]
  Plant response rating (scale of 0 to 100), Pigweed: 100
Pigweed [2]; [3]
  Pigweed plant response rating: 100
Pigweed [2]; 13 to 15 days
  Plant response rating, Pigweed: 100
Pigweed [2]; [4]
  Pigweed plant response rating: 100
ragweed; 62 g ai/ha, scale 0 to 100
  Ragweed plant response rating: 45
ragweed; [7]
  Plant response rating, Ragweed: 70
rice; [5]
  Plant response rating, Rice: 0
rice; [6]
  Plant response rating, Rice: 15
rice; 125 g ai/ha, scale 0 to 100
  Plant response rating, Rice: 15
rice; 250 g ai/ha, scale 0 to 100
  Plant response rating, Rice: 15
sedge, umbrella; [5]
  Plant response rating, Sedge, Umbrella: 0
sedge, umbrella; [6]
  Plant response rating, Sedge, Umbrella: 0
sedge, umbrella; 125 g ai/ha, scale 0 to 100
  Plant response rating, Sedge, Umbrella: 0
sedge, umbrella; 250 g ai/ha, scale 0 to 100
  Plant response rating, Sedge, Umbrella: 90
ryegrass, Italian; 62 g ai/ha, scale 0 to 100
  Ryegrass, Italian plant response rating: 0
ryegrass, Italian; [7]
  Plant response rating, Ryegrass, Italian: 0
ryegrass, Italian; [9]
  Plant response rating, Ryegrass, Italian: 0
barnyardgrass; [5]
  Plant response rating, Barnyardgrass: 0
barnyardgrass; [6]
  Plant response rating, Barnyardgrass: 15
barnyardgrass; 125 g ai/ha, scale 0 to 100
  Plant response rating, Barnyardgrass: 15
barnyardgrass; 250 g ai/ha, scale 0 to 100
  Plant response rating, Barnyardgrass: 15
